How the values were obtained:
[1] = system: RP-B-01, RP-B-02 and T24 cell lines; assay: Alamar blue combination study with cisplatin; type: cell-based, human; conditions: combined with increasing concentrations of cisplatin, 72 h
Protocol: FIGS. 30A-30C. […] RP-B-01, RP-B-02, and T24 cell lines were treated with increasing concentrations of cisplatin in combination with a single dose of either APX2009 or APX2014 as indicated (n=3±SE). Cell proliferation was normalized to Saline control and expressed as Fold Change. Combination index (CI) values calculated with Compusyn for combination of APX inhibitors and cisplatin. CI values indicated mainly additivity (0.95-1.2) to synergy (0.8-0.94).
Bladder cancer cell lines (BLCAb001 (RP-B-01) and BLCAb002 (RP-B-02) maintained in RPMI growth medium with 10% FBS were plated at 4,000 cells/well in poly-D-lysine treated 96-well clear bottom black plates and grown overnight in 5% CO2 at 37° C. Cells in monolayer were then treated with increasing concentrations of redox-specific inhibitor APX3330, APX2014 or APX2009 and serially diluted 1:2 in a 5-point dose scheme. For combination studies, cells were treated with both cisplatin and APX compounds to determine efficacy. After 72 hours, fresh RPMI medium with 5% FBS was exchanged, and a fluorescent metabolic indicator, Alamar Blue was added to each well at 10% final concentration. After a 4 hour incubation, plates were read on a Synergy H4 (Bio-Tek) plate reader. […]
APE1/Ref-1 inhibition enhances cisplatin's therapeutic effect. […] Cell proliferation was assessed using Alamar blue 72 h after drug treatment.

RP-B-02 spheroids = assay: 3D spheroid growth assay RP-B-02; type: cell-based, human; conditions: p<0.05
Description: RP-B-01 and RP-B-02 cells were resuspended in normal growth media containing 3% Reduced Growth Factor Matrigel (BD Biosciences) at a cell density of 1,500 and 3,000 cells/well, respectively and plated in ultra-low adherence 96-well plates (Corning).
Spheroids were allowed to form and then treated on days 4, 8, and 12 following plating with media containing 5% serum, 3% Reduced Growth Factor Matrigel, and APE1/Ref-1 inhibitors. Vehicle control, DMSO, was less than 0.01% of the volume, and was equivalent in each well. On Day 15, Alamar blue reagent (LifeTechnologies) was added to each well (10 μL/well) and incubated for 24 hours.
In order to mimic tumor growth more accurately in a relevant microenvironment and in a more robust model for predicting response to treatment, a three-dimensional (3D) culture model of patient-derived RP-B-01 and RP-B-02 bladder cancer cells was used. Both RP-B-01 and RP-B-02 cell lines are transitional cell carcinoma staged as T4bN1Mx and T2bN0Mx Grade III tumors, respectively.

[2] = system: retinal vascular endothelial cells (RVEC); assay: MTS proliferation assay of retinal endothelial cells; type: cell-based, mouse
Protocol: Inhibition of endothelial cell proliferation. […] Young adult mouse retinal tissues were dissected out and digested. Cells were plated in 24 well plates and grown to confluence, then seeded to 96 well plates for assay. Three days after seeding, the total number of cells was assayed by MTS measurement (Promega). The proliferation rate was calculated according to manufacturer's instructions. Proliferations of RECs from different groups were compared for statistical significance. APX3330 (RN3-3) blocked REC proliferation indicative of anti-blood vessel formation effects. (FIG. 10)
APX3330 10-100 μM decreased cell proliferation of retinal vascular endothelial cells (RVEC) (FIG. 11). In basal media, APX3330 inhibited REVC cell proliferation at all 4 concentrations tested, 10 μM-57%, 25 μM-93% (p<0.01).

multiple myeloma cells = assay: MTS assay of multiple myeloma cells, combinations (CalcuSyn); type: cell-based
Protocol: APX3330 in combination with chemotherapeutic Melphalan. […] Synergistic plots made using CalcuSyn software. APX3330 was either given alone or in combination with melphalan. As an indicator of DNA double stranded breaks (DSBs), the phosphorylation of histone H2AX at Ser^139 was measured with a phosphorylation-specific H2AX antibody from Upstate Cell Signaling Solutions (Waltham, Md.). Cells were treated with melphalan alone or melphalan plus APX3330. After drug treatment, exponentially growing cells were harvested, washed in cold PBS, and lysed in about 100 μL RIPA assay buffer as described above. Protein was quantified and electrophoresed in SDS gel-loading buffer on a 12% SDS-polyacrylamide gel. Mouse monoclonal anti-phosphohistone H2AX (about 1:1000) or anti-actin antibody (about 1:1000; as a loading control, LabVision Corp., NeoMarkers, Fremont, Calif.) was used to probe for protein levels as described previously. Bands were detected using a chemiluminescence kit from Roche Applied Biosciences (Indianapolis, Ind.). The bands were visualized using Bio-Rad Chemidoc XRS (Hercules, Calif.) and quantitated using Chemidoc software, Quantity One 4.6.1. […]
APX3330 in combination with Methoxyamine-multiple myeloma cells. […] Data was calculated using the CalcuSyn software which is based on the Chou-Talalay algorithm (Chou-Talalay; Advances in Enzyme Regulation 22, 27-55). […]

CCC/C(=C\C1=C(OC)C(=O)c2ccccc2C1=O)C(=O)N(CC)CC [APX2009, [(2E)-2-[(3-methoxy-1,4-dioxo-1,4-dihydronaphthalen-2-yl)methylidene]-N,N-diethylpentanamide]]
cellular proliferation when combined with cisplatin [1]: further reduction in cellular proliferation | potency in RP-B-02 cells in 3D culture relative to APX3330 (RP-B-02 spheroids): more potent in the RP-B-02 cells than parent compound APX3330

CCCCCCCCC/C(=C\C1=C(C)C(=O)C(OC)=C(OC)C1=O)C(=O)O [APX3330]
inhibition at 10 µM ([2]; Mus musculus, Endothelial cell, 10 μM, basal media): 57% | inhibition at 25 µM ([2]; Mus musculus, Endothelial cell, 25 μM, basal media): 93% | retinal endothelial cell proliferation ([2]; about 10-100 μM, with or without bFGF): decreased retinal endothelial cell proliferation | killing of multiple myeloma cells in combination with melphalan (multiple myeloma cells; combination with melphalan, 72 hours): synergistically enhance the killing of multiple myeloma cells | killing of multiple myeloma cells in combination with methoxyamine (multiple myeloma cells; combination with methoxyamine): enhanced killing of multiple myeloma cells

— patent US11331294B2, “Benzoquinone derivative E3330 in combination with chemotherapeutic agents for the treatment of bladder cancer” (Indiana University Research and Technology Corporation, priority 2007, dated 2022)
